# Measured values reported in PubChem BioAssay (NCI).
#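 Exposure lasted 48 hours, with cells grown in 96-well plates and compounds tested at five concentrations. At the TGI there is no net growth.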
# Legend:
# Experiment in all cases: growth of human tumour cells (NCI), 48 h
# [1] = tested on: SN12C renal
# [2] = tested on: SNB-75 CNS
# [3] = tested on: NCI/ADR-RES ovarian
# [4] = tested on: SK-MEL-2 melanoma
# [5] = tested on: LOX IMVI melanoma
# [6] = tested on: SK-MEL-5 melanoma
# [7] = tested on: RPMI-8226 leukemia
# [8] = tested on: SF-539 CNS
# [9] = tested on: M14 melanoma
# [10] = tested on: RXF 393 renal
# [11] = tested on: U251 CNS
# [12] = tested on: DU-145 prostate
# [13] = tested on: SNB-19 CNS
# [14] = tested on: UACC-62 melanoma
# [15] = tested on: MALME-3M melanoma
# [16] = tested on: PC-3 prostate
# [17] = tested on: COLO 205 colon
# [18] = tested on: SF-268 CNS
# [19] = tested on: 786-0 renal
# [20] = tested on: HCC-2998 colon
# [21] = tested on: NCI-H226 lung
# [22] = tested on: HS 578T breast
# [23] = tested on: MCF7 breast
# [24] = tested on: SR leukemia
# [25] = tested on: HT29 colon
# [26] = tested on: T-47D breast
# [27] = tested on: CCRF-CEM leukemia
# [28] = tested on: SF-295 CNS
# [29] = tested on: OVCAR-4 ovarian
# [30] = tested on: BT-549 breast
# [31] = tested on: SK-MEL-28 melanoma
# [32] = tested on: K-562 leukemia
# [33] = tested on: HL-60(TB) leukemia
# [34] = tested on: ACHN renal
# [35] = tested on: EKVX NSCLC
# [36] = tested on: HOP-62 NSCLC
# [37] = tested on: HOP-92 NSCLC
# [38] = tested on: MDA-N
# [39] = tested on: HCT-15 colon
# [40] = tested on: MOLT-4 leukemia
# [41] = tested on: NCI-H522 lung
# [42] = tested on: IGROV1 ovarian
# [43] = tested on: HCT-116 colon
# [44] = tested on: OVCAR-3 ovarian
# [45] = tested on: UACC-257 melanoma
# [46] = tested on: CAKI-1 renal
# [47] = tested on: SK-OV-3 ovarian
# [48] = tested on: A549 NSCLC
# [49] = tested on: UO-31 renal
# [50] = tested on: KM12 colon
# [51] = tested on: SW-620 colon
# [52] = tested on: MDA-MB-231 breast
# [53] = tested on: OVCAR-8 ovarian
# [54] = tested on: OVCAR-5 ovarian
# [55] = tested on: MDA-MB-435
# [56] = tested on: TK-10 renal
# [57] = tested on: NCI-H23 lung
# [58] = tested on: A498 renal
# [59] = tested on: NCI-H460 lung
smiles,measurement,setting,value
CC12CCC(C(=O)n3c1nc1ccccc13)C(C)(C)O2 (stereo not drawn),TGI,[1],> 100 µM
same,TGI,[2],> 100 µM
same,TGI,[3],> 100 µM
same,TGI,[4],> 100 µM
same,TGI,[5],> 100 µM
same,TGI,[6],> 100 µM
same,TGI,[7],> 100 µM
same,TGI,[8],> 100 µM
same,TGI,[9],> 100 µM
same,TGI,[10],> 100 µM
same,TGI,[11],> 100 µM
same,TGI,[12],> 100 µM
same,TGI,[13],> 100 µM
same,TGI,[14],> 100 µM
same,TGI,[15],> 100 µM
same,TGI,[16],> 100 µM
same,TGI,[17],> 100 µM
same,TGI,[18],> 100 µM
same,TGI,[19],> 100 µM
same,TGI,[20],> 100 µM
same,TGI,[21],> 100 µM
same,TGI,[22],> 100 µM
same,TGI,[23],> 100 µM
same,TGI,[24],> 100 µM
same,TGI,[25],> 100 µM
same,TGI,[26],> 100 µM
same,TGI,[27],> 100 µM
same,TGI,[28],> 100 µM
same,TGI,[29],> 100 µM
same,TGI,[30],> 100 µM
same,TGI,[31],> 100 µM
same,TGI,[32],> 100 µM
same,TGI,[33],> 100 µM
same,TGI,[34],> 100 µM
same,TGI,[35],> 100 µM
same,TGI,[36],> 100 µM
same,TGI,[37],> 100 µM
same,TGI,[38],> 100 µM
same,TGI,[39],> 100 µM
same,TGI,[40],> 100 µM
same,TGI,[41],> 100 µM
same,TGI,[42],> 100 µM
same,TGI,[43],> 100 µM
same,TGI,[44],> 100 µM
same,TGI,[45],> 100 µM
same,TGI,[46],> 100 µM
same,TGI,[47],> 100 µM
same,TGI,[48],> 100 µM
same,TGI,[49],> 100 µM
same,TGI,[50],> 100 µM
same,TGI,[51],> 100 µM
same,TGI,[52],> 100 µM
same,TGI,[53],> 100 µM
same,TGI,[54],> 100 µM
same,TGI,[55],> 100 µM
same,TGI,[56],> 100 µM
same,TGI,[57],> 100 µM
CCOC1CN(C)C(=Nc2cccc3ccccc23)S1 (stereo not drawn),TGI,[1],> 10 µM
same,TGI,[2],> 10 µM
same,TGI,[3],> 10 µM
same,TGI,[5],> 10 µM
same,TGI,[6],> 10 µM
same,TGI,[7],> 10 µM
same,TGI,[8],> 10 µM
same,TGI,[9],> 10 µM
same,TGI,[11],> 10 µM
same,TGI,[12],> 10 µM
same,TGI,[13],> 10 µM
same,TGI,[14],> 10 µM
same,TGI,[15],> 10 µM
same,TGI,[16],> 10 µM
same,TGI,[17],> 10 µM
same,TGI,[18],> 10 µM
same,TGI,[19],> 10 µM
same,TGI,[58],> 10 µM
same,TGI,[20],> 10 µM
same,TGI,[21],> 10 µM
same,TGI,[22],> 10 µM
same,TGI,[23],> 10 µM
same,TGI,[24],> 10 µM
same,TGI,[25],> 10 µM
same,TGI,[26],> 10 µM
same,TGI,[27],> 10 µM
same,TGI,[28],> 10 µM
same,TGI,[29],> 10 µM
same,TGI,[30],> 10 µM
same,TGI,[31],> 10 µM
same,TGI,[32],> 10 µM
same,TGI,[34],> 10 µM
same,TGI,[35],> 10 µM
same,TGI,[36],> 10 µM
same,TGI,[37],> 10 µM
same,TGI,[59],> 10 µM
same,TGI,[38],> 10 µM
same,TGI,[39],> 10 µM
same,TGI,[40],> 10 µM
same,TGI,[41],> 10 µM
same,TGI,[42],> 10 µM
same,TGI,[43],> 10 µM
same,TGI,[44],> 10 µM
same,TGI,[45],> 10 µM
same,TGI,[46],> 10 µM
same,TGI,[47],> 10 µM
same,TGI,[48],> 10 µM
same,TGI,[49],> 10 µM
same,TGI,[50],> 10 µM
same,TGI,[51],> 10 µM
same,TGI,[52],> 10 µM
same,TGI,[53],> 10 µM
same,TGI,[54],> 10 µM
same,TGI,[55],> 10 µM
same,TGI,[56],> 10 µM
same,TGI,[57],> 10 µM
